Results on four molecules are retold here after publication PMC3344892, “NAD-Independent L-Lactate Dehydrogenase Is Required for L-Lactate Utilization in Pseudomonas stutzeri SDM” (PLoS ONE, 2012).

In data set [1] the target is T1, L-iLDH (NAD-independent L-lactate dehydrogenase) from P. stutzeri SDM (Stutzerimonas stutzeri, UniProt I1SLB1).
T1 construct: gene lldD; full-length lldD in pETDuet-1 (HindIII/XhoI), expressed in E. coli C43(DE3), HisTrap purified (tag not described); also purified natively from membrane with Triton X-100; one FMN per subunit
T1 sequence (I1SLB1 1-391): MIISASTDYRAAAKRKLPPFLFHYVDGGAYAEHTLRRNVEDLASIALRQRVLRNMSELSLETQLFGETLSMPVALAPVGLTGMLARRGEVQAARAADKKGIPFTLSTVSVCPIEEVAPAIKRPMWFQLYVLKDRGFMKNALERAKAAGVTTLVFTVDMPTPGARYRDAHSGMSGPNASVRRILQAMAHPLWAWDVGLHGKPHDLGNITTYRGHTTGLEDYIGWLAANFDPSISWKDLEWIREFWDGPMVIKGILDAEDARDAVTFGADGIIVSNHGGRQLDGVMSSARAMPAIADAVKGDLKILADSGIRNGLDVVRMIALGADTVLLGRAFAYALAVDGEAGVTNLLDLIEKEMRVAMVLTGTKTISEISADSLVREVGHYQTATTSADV
The data set is described as follows: HPLC of flavin released by boiling; UV-visible spectrum. It counts as binding. As to conditions: native enzyme purified from membrane; recombinant enzyme similar; one FMN per subunit.

The target of data set [2] is T1, L-iLDH (NAD-independent L-lactate dehydrogenase) from P. stutzeri SDM. The data set is described as follows: MTT reduction at […] nm, double-reciprocal plots. In kind it is biochemical. On the technique in general: Tetrazolium assays rely on reduction of a dye to a coloured formazan, in cell work by metabolically active cells.
Substrate in data set [3]: C[C@H](O)C(=O)O
The data set is described as follows: purified protein. It counts as biochemical, Stutzerimonas stutzeri. As to conditions: apparent, fixed 0.2 mM MTT as electron acceptor, 50 mM Tris-HCl pH 7.5, 30°C.

Substrate in data set [4]: CC[C@H](O)C(=O)O
The data set is described as follows: purified protein. In kind it is biochemical, Stutzerimonas stutzeri. As to conditions: apparent, fixed 0.2 mM MTT as electron acceptor, 50 mM Tris-HCl pH 7.5, 30°C.

Consider `Cc1cc2nc3c(=O)[nH]c(=O)nc-3n(C[C@H](O)[C@H](O)[C@H](O)COP(=O)(O)O)c2cc1C` [FMN], for which the “HPLC of flavin released by boiling; UV-visible spectrum” value in data set [1] is recorded as “the native enzyme contains one FMN per subunit”.
As a reminder, the Ki is a dissociation constant, usually derived from enzyme kinetics or from competition with a known ligand. In data set [2], `O=C(O)C(=O)O` [oxalate] gave a Ki of 1.9 ± 0.1 mM.
On the same count and under the same terms, with `NC(=O)C(=O)O` [oxamate] the figure was 29 ± 1.7 mM.

B1: L-iLDH (NAD-independent L-lactate dehydrogenase) from P. stutzeri SDM (Stutzerimonas stutzeri) (protein)
chain: T1 sequence (I1SLB1 1-391)
notes: full-length lldD in pETDuet-1 (HindIII/XhoI), expressed in E. coli C43(DE3), HisTrap purified (tag not described); also purified natively from membrane with Triton X-100; one FMN per subunit
Usually Km stands for the concentration of substrate that gives half-maximal velocity. Turning to B1, the Km came out at 29 ± 0.65 µM in the data set “purified protein [3]” and 99 ± 3.9 µM in the data set “purified protein [4]”.
